Experimental data: US8609358B2, “Methods, peptides and biosensors useful for detecting a broad spectrum of bacteria” (priority 2003, dated 2013)
Primed or numbered codes have the meaning given here. Dabcyl′ = FRET label; Edans = FRET label

Legend:
[1] = system: bacterial culture (media and cells); experiment: Broad spectrum FRET assay, overnight bacterial culture; assay type: biochemical; conditions: pH 7.2, 150 mM NaCl, 37° C.
Description: (§1) A culture of each of the following bacterial species was grown overnight (O/N) in Brain Heart Infusion (BHI) broth at 37° C. with vigorous shaking (˜200 rpm), using methods that are standard in the art: Staphylococcus aureus; Streptococcus pyogenes; Serratia marcescens; Escherichia coli; Pseudomonas aeruginosa (PA14); Pseudomonas aeruginosa (GSU3); and Enterococcus faecalis. After overnight growth, a 1 ml sample of each culture was obtained, and the cells were removed from the culture supernatant by centrifugation at 12,000×g for 5 minutes. The remaining culture supernatants were stored on ice until required (less than one hour). The bacteria were assayed for the presence or absence of enzymes as described below.
Two peptide substrates, CPI1 and CPI2, were designed to encompass all of the cleavage sites of the RSL sequence, as shown in FIGS. 1A and 1B. The peptide substrates were labeled with the fluorescent probe edans (5-((2-aminoethyl)amino)naphthalene-1-sulfonic acid) and the quencher dye molecule dabcyl ((4-(4-(dimethylamino)phenyl)azo)benzoic acid).
The bacteria were grown in an incubator overnight at 37° C. in 5 mL BHI (Brain Heart Infusion) media. Each of the resulting cultures was split into two samples. […] The reaction was followed on a fluorimetric plate reader using an excitation wavelength of 355 nm and an emission wavelength of 485 nm. […]

[2] = system: proteases of Staphylococcus; experiment: Surface sensor sensitivity: cleavage of CPI2 by bacterial proteases; assay type: biochemical, Staphylococcus aureus
Description: (§2) CPI2 was determined to be a good candidate for a broad-spectrum sensor. Surface sensors were constructed as follows:
(§3) Membrane used: Pall SB6407
(§4) The sensors were air dried and stored overnight at −20° C. Sensors were loaded into sterile 96 well plates for the sensitivity study.
(§5) The bacteria E. faecalis, P. aeruginosa, S. aureus, S. pyogenes, and S. marcescens were grown in an incubator overnight at 37° C. in 5 ml BHI (Brain Heart Infusion) media and diluted to the concentrations given for each experiment. Each strain of bacteria was diluted with PBS (pH 7.4) to obtain an optical density (OD) of approximately 0.52 at 550 nm. This OD was assumed to represent approximately 10^8 cells/ml of bacteria. The 10^8 cells/ml stock of each bacteria was diluted with PBS to obtain a concentration series of: 10^7, 10^6, 10^5 and 10^4 cells/ml. Sensitivity testing consisted of placing 100 μL of each of the concentration series of 10^7, 10^6, 10^5 and 10^4 cells/ml (cells) onto a row of sensors. Controls for each sensitivity testing consisted of sensors exposed to 100 μL PBS.
(§6) Data was taken at 4, 24 and 48 hours for each plate. […] Images were analyzed using NIH ImageJ, a public domain image processing and analysis program developed at the National Institutes of Health (NIH). […]

[3] = system: five different clinical strains of E. faecalis; experiment: Inter-strain operability; assay type: biochemical, Enterococcus faecalis; conditions: all five clinical strains
From the text: A CIP2 fluorescent resonance entergy transfer (FRET) peptide was exposed to five different clinical strains of E. faecalis (obtained from the University of Colorado). […] FIG. 12 illustrates a graph of the relative fluorescence measured after exposure to the various strains.

[4] = system: E. coli cells or supernatant; experiment: Cleavage of CPI2 incubated with E. coli; assay type: biochemical, Escherichia coli
Description: as §1
The bacteria were grown in an incubator overnight at 37° C. in 5 mL BHI (Brain Heart Infusion) media. Each of the resulting cultures was split into two samples. One was used as a culture, and the other was spun down by centrifugation and the supernatant was collected. The assays were run in 20 mM tris buffer (pH 7.2) with 150 mM NaCl added […]. The cleavage reaction was carried out with 7 μL of culture or supernatant and 3 μL of peptide substrate (5 mg/mL in water/DMSO) in 100 μL total volume at 37° C. The reaction was followed on a fluorimetric plate reader using an excitation wavelength of 355 nm and an emission wavelength of 485 nm.

[5] = Cleavage of CPI2 in uninfected wound fluid; assay type: biochemical; conditions: in the presence of uninfected wound fluid
[6] = system: proteases of Streptococcus; experiment: Surface sensor sensitivity: cleavage of CPI2 by bacterial proteases; assay type: biochemical, Streptococcus pyogenes
Description: as §2, §3, §4, §5, §6

[7] = system: proteases of Enterococcus; experiment: as above; assay type: biochemical, Enterococcus faecalis
Description: as §2, §3, §4, §5, §6

proteases of Serratia = experiment: as above; assay type: biochemical, Serratia marcescens; conditions: for sensor signal: end of sensor study (40 hours)
Description: as §2, §3, §4, §5
Data was taken at 4, 24 and 48 hours for each plate. Data consisted of color (fluorescent) images of each plate taken under relatively uniform conditions (lighting, exposure time, etc.) using a Kodak DC290 digital camera. Images were analyzed using NIH ImageJ, a public domain image processing and analysis program developed at the National Institutes of Health (NIH). Analysis consisted of measuring the intensity value within each well (i.e., the sum of the intensity values of all the pixels in the selection divided by the number of pixels). Pixels range in value from 0 to 1. […] All sensor sensitivity data is plotted on an index scale from 0 to 1 versus time and the trends accurately reflect what is seen in the images.

proteases of Pseudomonas = experiment: as above; assay type: biochemical, Pseudomonas aeruginosa
Description: as §2, §3, §4, §5, §6

[8] = 10^5 bacteria/ml, end of sensor study (40 hours)

Edans-EAAGAMFLEAIPK-Dabcyl (Edans-EAAGAMFLEAIPK-{Dabcyl′}) [CPI1]
protease activity (relative fluorescence) [1]: protease activity was observed for a number of the bacteria

Edans-EGAMFLEAIPMSIPK-Dabcyl (Edans-EGAMFLEAIPMSIPK-{Dabcyl′}) [CPI2]
sensor signal [2, 8]: strong signal
cleavage of peptide substrate ([2]; proteases of Staphylococcus): efficiently cleaved
reaction with strains (relative fluorescence) [3]: reacted strongly
sensor signal ([4]; 10^5 bacteria/ml): not
cleavage of peptide substrate ([4]; incubated with E. coli cells or supernatant): not cleaved
cleavage of peptide substrate [5]: not cleaved
sensor signal [6, 8]: strong signal
cleavage of peptide substrate ([6]; proteases of Streptococcus): efficiently cleaved
protease activity (relative fluorescence) [1]: protease activity was observed for a number of the bacteria
sensor signal [7, 8]: strong signal
cleavage of peptide substrate ([7]; proteases of Enterococcus): efficiently cleaved
sensor signal (proteases of Serratia; 10^4 bacteria/ml): not observed to give a signal that can be significantly measured above the background
sensor signal (proteases of Serratia; 10^5 bacteria/ml): strong signal
cleavage of peptide substrate (proteases of Serratia; proteases of Serratia): efficiently cleaved
sensor signal (proteases of Pseudomonas; [8]): strong signal
cleavage of peptide substrate (proteases of Pseudomonas; proteases of Pseudomonas): efficiently cleaved
